Source: publication PMC3325759 (Journal of Natural Products, 2011)

What was measured:
[1] = biological target: human recombinant CB1 receptor (Homo sapiens, UniProt P21554); assay: biochemical; assay type: binding
[2] = tested on: H-460 human lung cell lines; assay: Cytotoxicity to H-460 cells; assay type: cell-based; conditions: all tested concentrations (up to 20 µg/mL)

Sequence of human recombinant CB1 receptor (P21554 whole entry): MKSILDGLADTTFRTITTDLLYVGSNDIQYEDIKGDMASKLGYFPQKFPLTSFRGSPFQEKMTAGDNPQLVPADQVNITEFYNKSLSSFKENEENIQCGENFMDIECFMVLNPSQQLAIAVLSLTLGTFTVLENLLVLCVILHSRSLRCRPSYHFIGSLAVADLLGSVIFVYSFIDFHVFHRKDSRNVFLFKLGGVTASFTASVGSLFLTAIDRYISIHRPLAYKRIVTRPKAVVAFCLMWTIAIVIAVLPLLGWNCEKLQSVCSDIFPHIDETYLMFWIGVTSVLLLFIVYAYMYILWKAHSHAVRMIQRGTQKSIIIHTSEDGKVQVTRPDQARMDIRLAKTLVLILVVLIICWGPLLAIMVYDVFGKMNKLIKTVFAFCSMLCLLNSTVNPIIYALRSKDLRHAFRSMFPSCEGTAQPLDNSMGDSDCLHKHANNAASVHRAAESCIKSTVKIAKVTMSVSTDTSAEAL

SMILES	EC50 [1]	affinity for the CB1 cannabinoid receptor (in words) ([1]; radioligand binding assay)	cytotoxicity (in words) [2]
CCCCCCCCCCCCC/C=C/CCC(=O)N(C)[C@H](CO)COC [compound 3, serinolamide A]	2.3 µM	–	–
C=C(CCCCCCCCCCCCC)CCCC(=O)O/C=C\COC(C)=O [compound 4, propenediester]	–	completely inactive	inactive
